The term IC50 denotes the point on the concentration scale where inhibition reaches its midpoint. Low readings indicate higher potency, high ones lower potency.

Chain of human CTPS1 (P17812 whole entry): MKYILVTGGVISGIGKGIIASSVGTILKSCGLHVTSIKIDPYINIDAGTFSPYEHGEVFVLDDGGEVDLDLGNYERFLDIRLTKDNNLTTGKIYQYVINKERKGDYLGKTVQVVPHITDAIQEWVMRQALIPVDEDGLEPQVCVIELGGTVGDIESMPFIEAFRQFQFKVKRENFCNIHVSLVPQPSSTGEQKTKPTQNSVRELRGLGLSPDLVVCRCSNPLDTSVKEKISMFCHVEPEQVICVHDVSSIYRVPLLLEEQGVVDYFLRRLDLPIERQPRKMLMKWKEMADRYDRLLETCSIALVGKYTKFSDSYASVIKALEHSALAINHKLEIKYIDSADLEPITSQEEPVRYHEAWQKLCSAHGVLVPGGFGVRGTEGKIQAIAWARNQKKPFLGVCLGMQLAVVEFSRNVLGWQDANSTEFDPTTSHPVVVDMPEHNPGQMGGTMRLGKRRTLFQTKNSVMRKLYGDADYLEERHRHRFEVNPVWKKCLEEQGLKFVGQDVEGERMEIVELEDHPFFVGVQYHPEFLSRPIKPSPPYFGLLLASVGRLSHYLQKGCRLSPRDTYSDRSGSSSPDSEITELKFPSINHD

The assay has as its target human CTPS1 (Homo sapiens (Human), UniProt P17812). Put plainly: hCTPS1 biochemical assay (ADP-Glo). The note with it: hCTPS1 25 nM, ATP 120 uM, UTP 160 uM, GTP 60 uM, L-Glutamine 100 uM, 25 degrees C.
The molecule `CCOc1cncc(-c2cnc(C(=O)NC(CCN(C)C)c3cc(NS(=O)(=O)C4CC4)ccn3)s2)n1` (stereo not drawn) [I-201, N-(1-(4-(cyclopropanesulfonamido)pyridin-2-yl)-3-(dimethylamino)propyl)-5-(6-ethoxypyrazin-2-yl)thiazole-2-carboxamide] yielded an IC50 of less than 100 nM.

For the molecule `O=C(NCc1cc(NS(=O)(=O)C2CC2)ccn1)c1ncc(-c2cnn3cc(Cl)ccc23)s1` [I-202], the IC50 is 100 to 1000 nM.

The molecule `CCOc1cncc(-c2cnc(C(=O)N[C@H](CN3CCNCC3)c3cc(NS(=O)(=O)C4CC4)ccn3)s2)n1` [I-205, (R)—N-(1-(4-(cyclopropanesulfonamido)pyridin-2-yl)-2-(piperazin-1-yl)ethyl)-5-(6-ethoxypyrazin-2-yl)thiazole-2-carboxamide] returned an IC50 of less than 100 nM.

With `CCOc1cncc(-c2cnc(C(=O)N[C@@H](CN3CCNCC3)c3cc(NS(=O)(=O)C4CC4)ccn3)s2)n1` [I-206, (S)—N-(1-(4-(cyclopropanesulfonamido)pyridin-2-yl)-2-(piperazin-1-yl)ethyl)-5-(6-ethoxypyrazin-2-yl)thiazole-2-carboxamide], the concentration for half-maximal inhibition (IC50) was less than 100 nM.

Turning to `CCOc1cncc(-c2cnc(C(=O)NC(CN3CCN(C)CC3)c3cc(NS(=O)(=O)C4CC4)ccn3)s2)n1` (stereo not drawn) [I-207], the IC50 was less than 100 nM.

`CCOc1cncc(-c2cnc(C(=O)NC(CN3CCCC3)c3cc(NS(=O)(=O)C4CC4)ccn3)s2)n1` (stereo not drawn) [I-208] yielded a half-maximal inhibitory concentration (IC50) of less than 100 nM.

`CCOc1cncc(-c2cnc(C(=O)N3CCOCC3c3cc(NS(=O)(=O)C4CC4)ccn3)s2)n1` (stereo not drawn) [I-209, N-(2-{4-[5-(6-ethoxypyrazin-2-yl)-1,3-thiazole-2-carbonyl]morpholin-3-yl}pyridin-4-yl)cyclopropanesulfonamide] returned a concentration for half-maximal inhibition (IC50) of less than 100 nM.

Turning to `CCOc1cncc(-c2cnc(C(=O)N3CCNC[C@H]3c3cc(NS(=O)(=O)C4CC4)ccn3)s2)n1` [I-211, (S)—N-(2-(1-(5-(6-ethoxypyrazin-2-yl)thiazole-2-carbonyl)piperazin-2-yl)pyridin-4-yl)cyclopropanesulfonamide], the IC50 fell in the range of 100 to 1000 nM.

`CCOc1cncc(-c2cnc(C(=O)N3CCNC[C@@H]3c3cc(NS(=O)(=O)C4CC4)ccn3)s2)n1` [I-212, (R)—N-(2-(1-(5-(6-ethoxypyrazin-2-yl)thiazole-2-carbonyl)piperazin-2-yl)pyridin-4-yl)cyclopropanesulfonamide] registered an IC50 of less than 100 nM.

As to `O=C(NCc1cc(NS(=O)(=O)C2CC2)ccn1)c1ncc(-c2cnc3[nH]cc(CC(F)F)c3n2)s1` [I-215], the IC50 is less than 100 nM.

Consider `CCOc1cncc(-c2cnc(C(=O)NC(CN3CC(F)C3)c3cc(NS(=O)(=O)C4CC4)ccn3)s2)n1` (stereo not drawn) [I-216], for which the 50% inhibitory concentration (IC50) is less than 100 nM.

Regarding `CCOc1cncc(-c2cnc(C(=O)NC(CN3CCNCC3)c3cc(NS(=O)(=O)C4CC4)ccn3)s2)n1` (stereo not drawn) [I-217, N-(1-(4-(cyclopropanesulfonamido)pyridin-2-yl)-2-(piperazin-1-yl)ethyl)-5-(6-ethoxypyrazin-2-yl)thiazole-2-carboxamide], the IC50 was less than 100 nM.

As for `CCOc1cncc(-c2cnc(C(=O)N3CCN(C)CC3c3cc(NS(=O)(=O)C4CC4)ccn3)s2)n1` (stereo not drawn) [I-218, N-(2-(1-(5-(6-ethoxypyrazin-2-yl)thiazole-2-carbonyl)-4-methylpiperazin-2-yl)pyridin-4-yl)cyclopropanesulfonamide], the IC50 was 100 to 1000 nM.

In turn, `CCOc1cncc(-c2sc(C(=O)N[C@@H](CC)c3cc(NS(=O)(=O)C4CC4)ccn3)nc2C)n1` [I-219, (S)—N-(1-(4-(cyclopropanesulfonamido)pyridin-2-yl)propyl)-5-(6-ethoxypyrazin-2-yl)-4-methylthiazole-2-carboxamide] came in with an IC50 of less than 100 nM.

The molecule `CCOc1cncc(-c2sc(C(=O)N[C@H](CC)c3cc(NS(=O)(=O)C4CC4)ccn3)nc2C)n1` [I-220, (R)—N-(1-(4-(cyclopropanesulfonamido)pyridin-2-yl)propyl)-5-(6-ethoxypyrazin-2-yl)-4-methylthiazole-2-carboxamide] yielded an IC50 of less than 100 nM.

As to `CCOc1cncc(-c2cnc(C(=O)N3CCNCC3c3cc(NS(=O)(=O)C4CC4)ccn3)s2)n1` (stereo not drawn) [I-223, N-(2-(1-(5-(6-ethoxypyrazin-2-yl)thiazole-2-carbonyl)piperazin-2-yl)pyridin-4-yl)cyclopropanesulfonamide], the IC50 lay within 100 to 1000 nM.

Molecule `CCOc1cncc(-c2cnc(C(=O)NC(CN3CCCCC3)c3cc(NS(=O)(=O)C4CC4)ccn3)s2)n1` (stereo not drawn) [I-224] came in with an IC50 of less than 100 nM.

In the case of `CCOc1cncc(-c2cnc(C(=O)N3CCC[C@@H]3c3cncc(NS(=O)(=O)C4CC4)c3)s2)n1` [I-225, (R)—N-(5-(1-(5-(6-ethoxypyrazin-2-yl)thiazole-2-carbonyl)pyrrolidin-2-yl)pyridin-3-yl)cyclopropanesulfonamide], the IC50 was less than 100 nM.

`CCOc1cncc(-c2cnc(C(=O)N3CCC[C@H]3c3cncc(NS(=O)(=O)C4CC4)c3)s2)n1` [I-226, (S)—N-(5-(1-(5-(6-ethoxypyrazin-2-yl)thiazole-2-carbonyl)pyrrolidin-2-yl)pyridin-3-yl)cyclopropanesulfonamide] registered an IC50 of 100 to 1000 nM.

Molecule `CCOc1cncc(-c2sc(C(=O)NC(CC)c3cc(NS(=O)(=O)C4CC4)ccn3)nc2C)n1` (stereo not drawn) [I-227] had an IC50 of less than 100 nM.

In turn, `CCOc1cncc(-c2cnc(C(=O)NC(CN3CCC3)c3cc(NS(=O)(=O)C4CC4)ccn3)s2)n1` (stereo not drawn) [I-228] showed an IC50 of less than 100 nM.

`CCOc1cncc(-c2cnc(C(=O)NCc3cc(NS(=O)(=O)C4CC4)ccn3)c(CN(C)C)c2)n1` [I-229] registered an IC50 of 100 to 1000 nM.

`CCOc1cncc(-c2cnc(C(=O)N3CCC[C@@H]3c3cccc(NS(=O)(=O)C4CC4)n3)s2)n1` [I-230, N-[6-[(2R)-1-[5-(6-ethoxypyrazin-2-yl)-1,3-thiazole-2-carbonyl]pyrrolidin-2-yl]pyridin-2-yl]cyclopropanesulfonamide] had an IC50 of less than 100 nM.

In the case of `CCOc1cncc(-c2cnc(C(=O)N3CCC[C@H]3c3cccc(NS(=O)(=O)C4CC4)n3)s2)n1` [I-231, N-[6-[(2S)-1-[5-(6-ethoxypyrazin-2-yl)-1,3-thiazole-2-carbonyl]pyrrolidin-2-yl]pyridin-2-yl]cyclopropanesulfonamide], the IC50 fell in the range of 100 to 1000 nM.

For the molecule `CCOc1cncc(-c2cnc(C(=O)N3CCCC3c3cncc(NS(=O)(=O)C4CC4)c3)s2)n1` (stereo not drawn) [I-232, N-(5-(1-(5-(6-ethoxypyrazin-2-yl)thiazole-2-carbonyl)pyrrolidin-2-yl)pyridin-3-yl)cyclopropanesulfonamide], the IC50 is less than 100 nM.

Molecule `O=C(NCc1cc(NS(=O)(=O)C2CC2)ccn1)c1ncc(-c2cnn3ccccc23)s1` [I-237, N-((4-(cyclopropanesulfonamido)pyridin-2-yl)methyl)-5-(pyrazolo[1,5-a]pyridin-3-yl)thiazole-2-carboxamide] gave an IC50 of 100 to 1000 nM.

`CCOc1cncc(-n2cnc(C(=O)NCc3cc(NS(=O)(=O)C4CC4)ccn3)c2)n1` [I-238] yielded a concentration for half-maximal inhibition (IC50) of 100 to 1000 nM.

The molecule `CCOc1cncc(-c2nnc(C(=O)N[C@@H](CC)c3cc(NS(=O)(=O)C4CC4)ccn3)s2)n1` [I-239] had an IC50 of less than 100 nM.

As for `CCOc1cncc(-c2cnc(C(=O)NC(CN(C)C)c3cc(NS(=O)(=O)C4CC4)ccn3)s2)n1` (stereo not drawn) [I-241], the IC50 is less than 100 nM.

`CCOc1cncc(-c2cnc(C(=O)NCc3cc(NS(=O)(=O)C4CC4)ccn3)s2)c1` [I-242, N-((4-(cyclopropanesulfonamido)pyridin-2-yl)methyl)-5-(5-ethoxypyridin-3-yl)thiazole-2-carboxamide] displayed an IC50 of less than 100 nM.

`O=C(NCc1cc(NS(=O)(=O)C2CC2)ccn1)c1ncc(-c2cncc(OCC(F)(F)F)n2)s1` [I-243] had an IC50 of less than 100 nM.

`CCOc1cncc(-n2cc(C(=O)NCc3cc(NS(=O)(=O)C4CC4)ccn3)cn2)n1` [I-244] showed a half-maximal inhibitory concentration (IC50) of 100 to 1000 nM.

As to `CCOc1cncc(-c2cnc(C(=O)NC(CN3CCOCC3)c3cc(NS(=O)(=O)C4CC4)ccn3)s2)n1` (stereo not drawn) [I-245], the half-inhibitory concentration (IC50) was less than 100 nM.

In turn, `CCOc1cncc(-c2ccc(C(=O)NCc3cnnc(NS(=O)(=O)C4CC4)c3)nc2)n1` [I-246, N-[(6-cyclopropanesulfonamidopyridazin-4-yl)methyl]-5-(6-ethoxypyrazin-2-yl)pyridine-2-carboxamide] had an IC50 of less than 100 nM.

The molecule `CCOc1cncc(-c2cnc(C(=O)N[C@@H](CN3CCOCC3)c3cccc(NS(=O)(=O)C(F)F)c3)s2)n1` [I-247, (R)—N-(1-(3-((difluoromethyl)sulfonamido)phenyl)-2-morpholinoethyl)-5-(6-ethoxypyrazin-2-yl)thiazole-2-carboxamide] gave an IC50 of less than 100 nM.

`CCOc1cncc(-c2cnc(C(=O)NCc3c(F)ccc(NS(=O)(=O)C4CC4)c3F)s2)n1` [I-248, N-[(3-cyclopropanesulfonamido-2,6-difluorophenyl)methyl]-5-(6-ethoxypyrazin-2-yl)-1,3-thiazole-2-carboxamide] gave an IC50 of less than 100 nM.

On to `CCOc1cncc(-c2cnc(C(=O)NCc3cc(F)cc(NS(=O)(=O)C4CC4)c3F)s2)n1` [I-250, N-[(3-cyclopropanesulfonamido-2,5-difluorophenyl)methyl]-5-(6-ethoxypyrazin-2-yl)-1,3-thiazole-2-carboxamide], for which the IC50 is less than 100 nM.

`O=C(NCc1cc(NS(=O)(=O)C2CC2)ccn1)c1ncc(-c2cncc(C(F)(F)F)c2)s1` [I-251, N-((4-(cyclopropanesulfonamido)pyridin-2-yl)methyl)-5-(5-(trifluoromethyl)pyridin-3-yl)thiazole-2-carboxamide]: the IC50 was in the range of 100 to 1000 nM.

`O=C(NCc1cc(NS(=O)(=O)C2CC2)ccn1)c1ncc(-c2cncc(Cl)c2)s1` [I-252] displayed an IC50 of less than 100 nM.

Consider `O=C(NCc1cc(NS(=O)(=O)C2CC2)ccn1)c1ncc(-c2cncc(C(F)(F)F)n2)s1` [I-253], for which the IC50 was less than 100 nM.

The molecule `O=C(NCc1cc(NS(=O)(=O)C2CC2)ccn1)c1ccc(-c2cncc(C(F)(F)F)n2)cc1F` [I-254] gave an IC50 of 100 to 1000 nM.

`CCOc1cncc(-c2cnc(C(=O)NCc3cc(F)c(F)c(NS(=O)(=O)C4CC4)c3)s2)n1` [I-255, N-[(3-cyclopropanesulfonamido-4,5-difluorophenyl)methyl]-5-(6-ethoxypyrazin-2-yl)-1,3-thiazole-2-carboxamide] yielded an IC50 not below 1000 nM.
